Measurements published in US6992215B2, “Thiol-based NAALADase inhibitors” (Guildford Pharmaceuticals Inc., priority 2001, dated 2006).

The compounds below were run on cortical cell cultures (assay: In Vitro Assay on Ischemia (glutamate toxicity after potassium cyanide / 2-deoxyglucose insult)). Conditions: concentration required to cause a 50% reduction in glutamate toxicity following an ischemic insult.
Type: cell-based
Procedure: To examine the in vitro effect of the inventive compounds on ischemia, cortical cell cultures were treated with various compounds of this invention during an ischemic insult utilizing potassium cyanide and 2-deoxyglucose, and for one hour thereafter. For a description of the experimental method used, see Vornov et al., J. Neurochem., Vol. 65, No. 4, pp. […] (1995).
`O=C(O)Cc1ccc(CC(CCCS)C(=O)O)cc1` (stereo not drawn) [Compound 28, 4-(carboxymethyl)-alpha-(3-mercaptopropyl)-benzenepropanoic acid] was tested, and the EC50 was 48 nM.
`O=C(O)C(CCCS)Cc1ccccc1Cl` (stereo not drawn) [Compound 43, 2-chloro-alpha-(3-mercaptopropyl)-benzenepropanoic acid] was tested, and the EC50 was 452 nM.
For `O=C(O)c1ccc(F)c(OC(CCCS)C(=O)O)c1` (stereo not shown) [Compound 34, 3-(1-carboxy-4-mercaptobutoxy)-4-fluoro-benzoic acid], the EC50 was 346 nM.
Work on `N#Cc1ccccc1CC(CCCS)C(=O)O` (stereo not drawn) [Compound 8, 2-cyano-alpha-(3-mercaptopropyl)-benzenepropanoic acid] yielded an EC50 of 133 nM.
In the case of `N#Cc1ccccc1-c1ccc(CC(CCCS)C(=O)O)cc1` (stereo not drawn) [Compound 12, 4-(2-cyanophenyl)-alpha-(3-mercaptopropyl)-benzenepropanoic acid], the EC50 is reported as 188 nM.
For `O=C(O)c1cc(CC(CCCS)C(=O)O)ccc1F` (stereo not drawn) [Compound 11, 3-carboxy-4-fluoro-alpha-(3-mercaptopropyl)-benzenepropanoic acid], the EC50 was 15.4 nM.
`NC(=O)c1ccccc1CC(CCCS)C(=O)O` (stereo not drawn) [Compound 13, 2-(aminocarbonyl)-alpha-(3-mercaptopropyl)-benzenepropanoic acid] gave an EC50 of 10000 nM.
Work on `O=C(O)C(CCCS)Oc1ccccc1` (stereo not shown) [Compound 15, 5-mercapto-2-phenoxy-pentanoic acid] yielded an EC50 of 1000 nM.
Compound `CC(=O)c1cccc(OC(CCCS)C(=O)O)c1` (stereo not shown) [Compound 23, 2-(3-acetylphenoxy)-5-mercapto-pentanoic acid] has an EC50 of 21 nM.
`O=C(O)c1c(F)c(F)c(CC(CCCS)C(=O)O)c(F)c1F` (stereo not drawn) [Compound 39, 4-carboxy-2,3,5,6-tetrafluoro-alpha-(3-mercaptopropyl)-benzenepropanoic acid] was tested, and the EC50 was 290 nM.
Work on `O=C(O)c1cc(CC(CCCS)C(=O)O)cc(C(=O)O)c1` (stereo not shown) [Compound 9, 5-(2-carboxy-5-mercaptopentyl)-1,3-benzenedicarboxylic acid] yielded an EC50 of 104 nM.
With `COc1ccc(C(=O)O)cc1CC(CCCS)C(=O)O` (stereo not drawn) [Compound 36, 5-carboxy-alpha-(3-mercaptopropyl)-2-methoxy-benzenepropanoic acid] the EC50 was 74.9 nM.
In the case of `O=C(O)c1ccc(OC(CCCS)C(=O)O)cc1` (stereo not shown) [Compound 30, 4-(1-carboxy-4-mercaptobutoxy)-benzoic acid], the EC50 is reported as 399 nM.
`O=C(O)Cc1cccc(OC(CCCS)C(=O)O)c1` (stereo not shown) [Compound 20, 3-(1-carboxy-4-mercaptobutoxy)-benzeneacetic acid] was tested, and the EC50 was 39.3 nM.
For `O=C(O)c1ccc(F)c(CC(CCCS)C(=O)O)c1` (stereo not drawn) [Compound 35, 5-carboxy-2-fluoro-alpha-(3-mercaptopropyl)-benzenepropanoic acid], the EC50 was 23 nM.
In the case of `O=C(O)c1ccc(CC(CCCS)C(=O)O)cc1Br` (stereo not drawn) [Compound 47, 3-bromo-4-carboxy-alpha-(3-mercaptopropyl)-benzenepropanoic acid], the EC50 is reported as 119 nM.
Compound `O=C(O)c1ccc([N+](=O)[O-])c(CC(CCCS)C(=O)O)c1` (stereo not drawn) [Compound 50, 5-carboxy-alpha-(3-mercaptopropyl)-2-nitro-benzenepropanoic acid] has an EC50 of 26 nM.
`O=C(O)c1ccccc1CC(CCCS)C(=O)O` (stereo not drawn) [Compound 38, 2-carboxy-alpha-(3-mercaptopropyl)-benzenepropanoic acid] was tested, and the EC50 was 762 nM.
`COc1cc(OC)cc(OC(CCCS)C(=O)O)c1` (stereo not shown) [Compound 16, 2-(3,5-dimethoxyphenoxy)-5-mercapto-pentanoic acid] gave an EC50 of 267 nM.
`O=C(O)c1ccc(CC(CCCS)C(=O)O)c2ccccc12` (stereo not drawn) [Compound 37, 4-carboxy-alpha-(3-mercaptopropyl)-1-naphthalenepropanoic acid] gave an EC50 of 215 nM.
With `O=C(O)c1cccc(CC(CCCS)C(=O)O)c1-c1ccccc1` (stereo not shown) [Compound 57, 6-(2-carboxy-5-mercaptopentyl)-[1,1′-biphenyl]-2-carboxylic acid] the EC50 was 21 nM.
`O=C(O)c1cccc(CC(CCCS)C(=O)O)c1Cl` (stereo not drawn) [Compound 31, 3-carboxy-2-chloro-alpha-(3-mercaptopropyl)-benzenepropanoic acid] was tested, and the EC50 was 31 nM.
